Patent US20210330611A1, “THERAPY FOR NEUROLOGICAL DISEASES/DISORDERS” (priority 2020, published 2021)
Counter-ions that a name gives are not always drawn.

Tests used:
[1] = tested on: primary rat microglia; assay: Cell toxicity (dead cells, size <150 μm2) in coated fibrin (cFib) assay; details: primary microglia HTS, 10 μM, fibrin assay, cell size <150 μm^2 as marker of toxicity;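 note: share of dead cells sized under 150 µm2 at 10 µM in fibrin-stimulated microglia HTS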
[2] = tested on: LPS-induced microglia activation; assay: Image-based assay of LPS-induced microglia activation (HTS and dose response); assay type: cell-based, rat; details: primary microglia HTS, 10 μM, LPS-stimulated, cell size >800 μm^2 as marker of activation; for inhibition at 10 µM: Rattus norvegicus, Microglia, read-out: LPS % inhibition
[3] = tested on: fibrin- and LPS-induced microglia activation; assay: cells; assay type: cell-based, rat; details: HTS of 1907 compounds, quadrant by fibrin and LPS inhibition
[4] = tested on: fibrin-induced microglia activation; assay: Image-based assay of fibrin-induced microglia activation (HTS and dose response); assay type: cell-based, rat; details: primary microglia HTS, 10 μM, fibrin-stimulated, cell size >800 μm^2 as marker of activation; for inhibition at 10 µM: Rattus norvegicus, Microglia, read-out: Fibrin % inhibition
[5] = tested on: primary rat microglia; assay: Cell toxicity (dead cells, size <150 μm2) in LPS assay; details: primary microglia HTS, 10 μM, LPS assay, cell size <150 μm^2 as marker of toxicity

Row | Compound | Fibrin % cell toxicity [1] [%] | LPS % inhibition [2] [%] | Quadrant (FIG. 5b) [3] | Fibrin % inhibition [4] [%] | LPS % cell toxicity [5] [%] | inhibition at 10 µM [2] [%] | inhibition at 10 µM [4] [%]
1 | CC(C)(C)NC[C@H](O)COc1nsnc1N1CCOCC1 [Timolol Maleate] | 0 | 19 | Q4 | −4 | 0 | – | –
2 | CC(C)(C)NC[C@H](O)COc1nsnc1N1CCOCC1 [Timolol] | 1 | −7 | Q4 | 11 | 0 | – | –
3 | O=C(O)C1CSCN1 (centres unmarked) [Timonacic] | 0 | – | Q4 | – | 0 | 19 | -38
4 | CCS(=O)(=O)CCn1c([N+](=O)[O-])cnc1C [Tinidazole] | 0 | – | Q4 | – | 1 | 14 | 2
5 | CC(S)C(=O)NCC(=O)O (centres unmarked) [Tiopronin] | 1 | – | Q4 | – | 0 | 6 | -8
6 | C[N+]1(C)[C@@H]2C[C@@H](OC(=O)C(O)(c3cccs3)c3cccs3)C[C@H]1[C@@H]1O[C@@H]12 [Tiotropium] | 0 | – | Q4 | – | 0 | -1 | -32
7 | O=C(O)Cc1cc(I)c(Oc2ccc(O)c(I)c2)c(I)c1 [Tiratricol] | 1 | – | Q4 | – | 0 | 13 | -51
8 | NC[C@H]1O[C@H](O[C@H]2[C@H](O)[C@@H](O[C@H]3O[C@H](CO)[C@@H](O)[C@H](N)[C@H]3O)[C@H](N)C[C@@H]2N)[C@H](N)C[C@@H]1O [Tobramycin] | 1 | – | Q4 | – | 0 | 24 | 1
9 | Cc1cccc(C)c1NC(=O)C(C)N (centres unmarked) [Tocainide] | 1 | – | Q4 | – | 0 | 0 | -25
10 | CCOC(=O)NNc1nncc2ccccc12 [Todralazine Hydrochloride] | 1 | – | Q4 | – | 0 | 19 | 0
11 | c1ccc(CC2=NCCN2)cc1 [Tolazoline, Priscoline] | 0 | 17 | Q4 | −90 | 0 | – | –
12 | Cc1cc2nc3ccc(N(C)C)cc3[s+]c2cc1N [Tolonium Chloride] | 1 | – | Q4 | – | 1 | 43 | -4
13 | Cc1ccc(C(=O)C(C)CN2CCCCC2)cc1 (centres unmarked) [Tolperisone] | 1 | – | Q4 | – | 0 | 11 | -7
14 | CC1(C)O[C@@H]2[C@@H](CO[C@@]3(COS(N)(=O)=O)OC(C)(C)O[C@@H]23)O1 [Topiramate] | 1 | – | Q4 | – | 0 | 5 | 4
15 | Cc1cccc(Nc2ccncc2S(=O)(=O)NC(=O)NC(C)C)c1 [Torasemide] | 1 | – | Q4 | – | 0 | 7 | -29
16 | COc1ccc(/C=C/C(=O)Nc2ccccc2C(=O)O)cc1OC [Tranilast] | 0 | – | Q4 | – | 0 | 22 | 35
